In PubChem BioAssay AID248 (DTP/NCI, 2004):
Several values for one entry are separate records, joined by “and”; a condition that tells them apart may be missing. Equal values may be shown once. Toxic doses and inconclusive results are not listed. Cut-off read from the data, not from the text of the source: active = T/C of 150% or more; inactive = T/C below 125%.

Test system: L1210 leukemia ip in BDF1 mice, survival T/C
Test: NCI In Vivo Anticancer Drug Screen. Data for tumor model L1210 Leukemia (intraperitoneal) in B6D2F1 (BDF1) mice
Conditions: endpoint: mean survival time, higher = longer survival
In short: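 Transplanted-tumor mice were given test agent; controls received vehicle only. Survival readings from the two groups were divided (treated over control).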

[1] = dose: 100.0 mg/kg/injection, schedule: Q01DX001 (ip), vehicle: Klucel (hydroxypropylcellulose) (HPC)
[2] = dose: 100.0 mg/kg/injection, schedule: Q01DX009 (ip), vehicle: saline
[3] = dose: 100.0 mg/kg/injection, schedule: Q04DX003 (ip), vehicle: saline
[4] = dose: 200.0 mg/kg/injection, schedule: Q01DX009 (ip), vehicle: saline
[5] = dose: 200.0 mg/kg/injection, schedule: Q04DX003 (ip), vehicle: saline
[6] = dose: 400.0 mg/kg/injection, schedule: Q01DX009 (ip), vehicle: saline
[7] = dose: 400.0 mg/kg/injection, schedule: Q04DX003 (ip), vehicle: saline
[8] = dose: 12.5 mg/kg/injection, schedule: Q01DX009 (ip), vehicle: saline with Tween-80
[9] = dose: 25.0 mg/kg/injection, schedule: Q01DX009 (ip), vehicle: saline with Tween-80
[10] = dose: 100.0 mg/kg/injection, schedule: Q01DX009 (ip), vehicle: Klucel (hydroxypropylcellulose) (HPC)
[11] = dose: 100.0 mg/kg/injection, schedule: Q04DX003 (ip), vehicle: Klucel (hydroxypropylcellulose) (HPC)
[12] = dose: 200.0 mg/kg/injection, schedule: Q01DX009 (ip), vehicle: Klucel (hydroxypropylcellulose) (HPC)
[13] = dose: 200.0 mg/kg/injection, schedule: Q04DX003 (ip), vehicle: Klucel (hydroxypropylcellulose) (HPC)
[14] = dose: 400.0 mg/kg/injection, schedule: Q01DX009 (ip), vehicle: Klucel (hydroxypropylcellulose) (HPC)
[15] = dose: 400.0 mg/kg/injection, schedule: Q04DX003 (ip), vehicle: Klucel (hydroxypropylcellulose) (HPC)
[16] = dose: 100.0 mg/kg/injection, schedule: Q01DX009 (ip), vehicle: saline with Tween-80
[17] = dose: 200.0 mg/kg/injection, schedule: Q01DX009 (ip), vehicle: saline with Tween-80
[18] = dose: 400.0 mg/kg/injection, schedule: Q01DX009 (ip), vehicle: saline with Tween-80
[19] = dose: 100.0 mg/kg/injection, schedule: Q01DX001 (ip), vehicle: saline
[20] = dose: 200.0 mg/kg/injection, schedule: Q01DX001 (ip), vehicle: saline
[21] = dose: 400.0 mg/kg/injection, schedule: Q01DX001 (ip), vehicle: saline

Measured: T/C

COC(=O)C1CC23CCCC12CC3 (centres undefined)
inactive: dose: 50.0 mg/kg/injection, schedule: Q04DX002 (ip), vehicle: saline with Tween-80 92 % of control | dose: 100.0 mg/kg/injection, schedule: Q04DX002 (ip), vehicle: saline with Tween-80 103 % of control | dose: 200.0 mg/kg/injection, schedule: Q04DX002 (ip), vehicle: saline with Tween-80 92 % of control

O=c1cc(Cc2ccc(F)cc2)[nH]c(=O)[nH]1
inactive: dose: 25.0 mg/kg/injection, schedule: Q01DX001 (ip), vehicle: Klucel (hydroxypropylcellulose) (HPC) 97 % of control | dose: 50.0 mg/kg/injection, schedule: Q01DX001 (ip), vehicle: Klucel (hydroxypropylcellulose) (HPC) 101 % of control | [1] 96 % of control

O=C(O)c1ccc(C(=O)c2ccccc2C(=O)O)cc1
inactive: [2] 105 % of control | [3] 102 % of control | [4] 106 % of control | [5] 112 % of control | [6] 105 % of control | [7] 101 % of control

N#Cc1ccccc1NC(=S)Nc1ccc([N+](=O)[O-])cc1
inactive: [8] 95 % of control | [9] 100 % of control | dose: 50.0 mg/kg/injection, schedule: Q01DX009 (ip), vehicle: saline with Tween-80 95 % of control and 88 % of control

O=[N+]([O-])c1ccc(C2N=C(c3ccccc3)CS2(=O)=O)cc1 (centres undefined)
inactive: [3] 97 % of control | [5] 95 % of control | [7] 93 % of control

C#CCCCCCC#CCCCCCC#CCCCCCC#C
inactive: dose: 100.0 mg/kg/injection, schedule: Q04DX003 (ip), vehicle: acetone 94 % of control | dose: 200.0 mg/kg/injection, schedule: Q04DX003 (ip), vehicle: acetone 95 % of control

C=CC[n+]1ccccc1C(c1ccccc1)c1ccccc1
inactive: dose: 6.25 mg/kg/injection, schedule: Q01DX009 (ip), vehicle: saline with Tween-80 108 % of control | [8] 97 % of control | dose: 12.5 mg/kg/injection, schedule: Q04DX003 (ip), vehicle: saline with Tween-80 95 % of control | [9] 92 % of control | dose: 25.0 mg/kg/injection, schedule: Q04DX003 (ip), vehicle: saline with Tween-80 103 % of control

O=C(Nc1cccc(C(F)(F)F)c1)N(CCO)Cc1ccccc1
inactive: [1] 104 % of control | [10] 100 % of control and 109 % of control | [11] 103 % of control | dose: 200.0 mg/kg/injection, schedule: Q01DX001 (ip), vehicle: Klucel (hydroxypropylcellulose) (HPC) 105 % of control | [12] 100 % of control and 114 % of control | [13] 99 % of control | dose: 400.0 mg/kg/injection, schedule: Q01DX001 (ip), vehicle: Klucel (hydroxypropylcellulose) (HPC) 102 % of control | [14] 93 % of control and 107 % of control | [15] 95 % of control

CC(=O)OCCC(=O)N1Cc2cc3ccccc3nc2C1
inactive: dose: 10.0 mg/kg/injection, schedule: Q04DX003 (ip), vehicle: alcohol 96 % of control | dose: 20.0 mg/kg/injection, schedule: Q04DX003 (ip), vehicle: alcohol 94 % of control | dose: 40.0 mg/kg/injection, schedule: Q04DX003 (ip), vehicle: alcohol 96 % of control | dose: 80.0 mg/kg/injection, schedule: Q04DX003 (ip), vehicle: alcohol 96 % of control | dose: 160.0 mg/kg/injection, schedule: Q04DX003 (ip), vehicle: alcohol 92 % of control

Cc1cc(OC(=O)Nc2ccccc2Cl)ccc1[N+](=O)[O-]
inactive: [10] 107 % of control | [11] 100 % of control | [12] 104 % of control | [13] 89 % of control | [14] 98 % of control | [15] 102 % of control

ClC(Cl)(c1ccccc1)C1(c2ccccc2)CC1
inactive: dose: 75.0 mg/kg/injection, schedule: Q01DX001 (ip), vehicle: acetone 107 % of control | dose: 150.0 mg/kg/injection, schedule: Q01DX001 (ip), vehicle: acetone 109 % of control

CC(C)c1cccc(C(C)C)c1OC(=O)Nc1ccccc1Cl
inactive: [10] 105 % of control | [11] 100 % of control | [12] 89 % of control | [13] 102 % of control | [14] 89 % of control | [15] 103 % of control

CN(C)c1ccc(/C=C/C=N/N=C/c2ccccc2O)cc1
inactive: dose: 75.0 mg/kg/injection, schedule: Q01DX001 (ip), vehicle: other 89 % of control | dose: 150.0 mg/kg/injection, schedule: Q01DX001 (ip), vehicle: other 94 % of control

CCOC(=O)CNC(=O)Nc1ccc(OC)cc1
inactive: [16] 100 % of control | [17] 93 % of control | [18] 100 % of control

Cc1ccc(NCCO)c2c(=O)c3ccccc3sc12
inactive: [19] 101 % of control | [20] 101 % of control | [21] 89 % of control

COc1cc(C(O)C(=O)O)c([N+](=O)[O-])cc1OC (centres undefined)
inactive: [19] 96 % of control | [20] 91 % of control | [21] 91 % of control

O=C1OCC/C1=C1\CCCO1
inactive: [16] 93 % of control | [17] 100 % of control | [18] 96 % of control

Clc1ccc(Cl)c(N=NNc2cc(Cl)ccc2Cl)c1
inactive: [16] 101 % of control | dose: 100.0 mg/kg/injection, schedule: Q04DX003 (ip), vehicle: saline with Tween-80 98 % of control | [17] 101 % of control | dose: 200.0 mg/kg/injection, schedule: Q04DX003 (ip), vehicle: saline with Tween-80 101 % of control | [18] 103 % of control | dose: 400.0 mg/kg/injection, schedule: Q04DX003 (ip), vehicle: saline with Tween-80 96 % of control

CC[N+]1(CC)CC[N+](CC)(CC)CC1 (tested in a mixture with another compound)
inactive: dose: 100.0 mg/kg/injection, schedule: Q04DX002 (ip), vehicle: saline 102 % of control | dose: 200.0 mg/kg/injection, schedule: Q04DX002 (ip), vehicle: saline 97 % of control | dose: 400.0 mg/kg/injection, schedule: Q04DX002 (ip), vehicle: saline 102 % of control

Nc1ccc(C(=O)O)c(Cl)c1
inactive: [11] 100 % of control | [13] 99 % of control | [15] 97 % of control

CC1OC(OC2C(CO)OC(O[C@H]3CC[C@@]4(C)C(=CC[C@H]5[C@@H]6C[C@@H]7O[C@@]8(CC[C@H](C)CN8)[C@@H](C)[C@@H]7[C@@]6(C)CC[C@@H]54)C3)C(OC3OC(C)C(O)C(O)C3O)C2O)C(O)C(O)C1O (some centres undefined)
inactive: dose: 10.0 mg/kg/injection, schedule: Q01DX009 (ip), vehicle: saline 115 % of control | dose: 20.0 mg/kg/injection, schedule: Q01DX009 (ip), vehicle: saline 103 % of control | dose: 40.0 mg/kg/injection, schedule: Q01DX009 (ip), vehicle: saline 100 % of control | dose: 80.0 mg/kg/injection, schedule: Q01DX009 (ip), vehicle: saline 103 % of control

O=P(OCCCCl)(OCCCCl)C(Cl)(Cl)Cl
inactive: [19] 102 % of control | [20] 101 % of control | [21] 101 % of control

O=S(=O)(O)CCCN1CCCCC1
inactive: [2] 107 % of control | [4] 112 % of control | [6] 98 % of control

Cc1nc2c(nc1C)C(=O)C=CC2=O
inactive: dose: 5.0 mg/kg/injection, schedule: Q01DX001 (ip), vehicle: carboxymethylcellulose (CMC) 100 % of control | dose: 10.0 mg/kg/injection, schedule: Q01DX001 (ip), vehicle: carboxymethylcellulose (CMC) 96 % of control | dose: 20.0 mg/kg/injection, schedule: Q01DX001 (ip), vehicle: carboxymethylcellulose (CMC) 94 % of control

N#C/C(=C\c1c[nH]c2ccccc12)c1ccc([N+](=O)[O-])cc1
inactive: dose: 100.0 mg/kg/injection, schedule: Q04DX002 (ip), vehicle: gum acacia 95 % of control | dose: 200.0 mg/kg/injection, schedule: Q04DX002 (ip), vehicle: gum acacia 101 % of control
